Results reported in patent US6525001B1, “Substituted pyrimidine and pyridine herbicides” (Mid-American Commercialization Corporation, priority 1997, dated 2003).

What was measured:
Type in all cases: in vivo
[1] = test system: bedstraw (Galium aparine); assay: Test B pre-/postemergence; design: key: 0 is no effect; 10 is complete control; conditions: Postemergence
Summary of the method: (§1)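 Response scores run from 0, meaning no effect, to 10, meaning complete control, assigned by eye relative to controls twelve to sixteen days after spraying. Treatment was both preemergence on planted seed and postemergence on plants at the 1- to 4-leaf stage.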

[2] = test system: blackgrass (Alopecurus myosuroides); assay: Test B pre-/postemergence; design: key: 0 is no effect; 10 is complete control; conditions: for Blackgrass plant response rating: Preemergence
Summary of the method: as §1

[3] = test system: broadleaf signalgrass (Brachiaria decumbens); assay: Test B pre-/postemergence; design: key: 0 is no effect; 10 is complete control; conditions: for B. signalgrass plant response rating: Preemergence
Summary of the method: as §1

[4] = test system: cocklebur (Xanthium strumarium); assay: Test B pre-/postemergence; design: key: 0 is no effect; 10 is complete control; conditions: for Plant response rating, Cocklebur: Postemergence; for Cocklebur plant response rating: Preemergence
Summary of the method: as §1

[5] = test system: corn (Zea mays); assay: Test B pre-/postemergence; design: key: 0 is no effect; 10 is complete control; conditions: for Corn plant response rating: Preemergence
Summary of the method: as §1

[6] = test system: crabgrass (Digitaria sanguinalis); assay: Test B pre-/postemergence; design: key: 0 is no effect; 10 is complete control; conditions: for Crabgrass plant response rating: Preemergence
Summary of the method: as §1

[7] = test system: giant foxtail (Setaria faberii); assay: Test B pre-/postemergence; design: key: 0 is no effect; 10 is complete control
Summary of the method: as §1

[8] = test system: momingglory (Ipomoea hederacea); assay: Test B pre-/postemergence; design: key: 0 is no effect; 10 is complete control
Summary of the method: as §1

[9] = test system: pigweed (Amaranthus retroflexus); assay: Test B pre-/postemergence; design: key: 0 is no effect; 10 is complete control
Summary of the method: as §1

[10] = test system: purple nutsedge (Cyperus rotundus); assay: Test B pre-/postemergence; design: key: 0 is no effect; 10 is complete control
Summary of the method: as §1

[11] = test system: rape (Brassica napus); assay: Test B pre-/postemergence; design: key: 0 is no effect; 10 is complete control
Summary of the method: as §1

[12] = test system: soybean (Glycine max); assay: Test B pre-/postemergence; design: key: 0 is no effect; 10 is complete control
Summary of the method: as §1

[13] = test system: sugar beet (Beta vulgaris); assay: Test B pre-/postemergence; design: key: 0 is no effect; 10 is complete control
Summary of the method: as §1

[14] = test system: velvetleaf (Abutilon theophrasti); assay: Test B pre-/postemergence; design: key: 0 is no effect; 10 is complete control
Summary of the method: as §1

[15] = test system: wheat (Triticum aestivum); assay: Test B pre-/postemergence; design: key: 0 is no effect; 10 is complete control
Summary of the method: as §1

[16] = test system: wild oat (Avena fatua); assay: Test B pre-/postemergence; design: key: 0 is no effect; 10 is complete control
Summary of the method: as §1

[17] = test system: bamyardgrass (Echinochloa crus-galli); assay: Test B flood test
Summary of the method: (§2)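 Each value is a visual injury score relative to controls, with 10 meaning complete control and 0 no effect. Evaluation took place twelve to sixteen days after the 2-leaf-stage plants were treated and kept in the greenhouse.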

[18] = test system: duck salad (Heteranthera limosa); assay: Test B flood test
Summary of the method: as §2

[19] = test system: rice (Oryza sativa); assay: Test B flood test
Summary of the method: as §2

[20] = test system: smallflower flatsedge (Cyperus difformis); assay: Test B flood test
Summary of the method: as §2

[21] = Rate 250 g/ha, Postemergence (so in the source)
[22] = Rate 62 g/ha, Postemergence (flood test)
[23] = Rate 125 g/ha, Postemergence, flood test
[24] = Rate 250 g/ha, Postemergence (flood test species)
[25] = Rate 125 g/ha, Postemergence section (flood test species)

Cc1cnc(-c2ccc(F)cc2F)nc1Cc1cccc(C(F)(F)F)c1 [Compound 31]
Plant response rating, Bedstraw ([1]; Rate 62 g/ha): 4
Plant response rating, Bedstraw ([1]; Rate 125 g/ha): 6
Plant response rating, Bedstraw ([1]; Rate 250 g/ha): 6
Plant response rating, Blackgrass ([2]; Rate 62 g/ha, Postemergence): 2
Blackgrass plant response rating ([2]; Rate 62 g/ha): 1
Plant response rating, Blackgrass ([2]; Rate 125 g/ha, Postemergence): 2
Blackgrass plant response rating ([2]; Rate 125 g/ha): 2
Plant response rating, Blackgrass ([2]; Rate 250 g/ha, Postemergence): 4
Plant response rating, Blackgrass [2, 21]: 3
Plant response rating, B. signalgrass ([3]; Rate 62 g/ha, Postemergence): 3
B. signalgrass plant response rating ([3]; Rate 62 g/ha): 3
Plant response rating, B. signalgrass ([3]; Rate 125 g/ha, Postemergence): 3
B. signalgrass plant response rating ([3]; Rate 125 g/ha): 9
Plant response rating, B. signalgrass ([3]; Rate 250 g/ha, Postemergence): 5
Plant response rating, B. signalgrass ([3]; Rate 250 g/ha, Postemergence as printed in head r139 (second section for compounds 26-50)): 9
Plant response rating, Cocklebur ([4]; Rate 62 g/ha): 6
Cocklebur plant response rating ([4]; Rate 62 g/ha): 0
Plant response rating, Cocklebur ([4]; Rate 125 g/ha): 6
Cocklebur plant response rating ([4]; Rate 125 g/ha): 0
Plant response rating, Cocklebur ([4]; Rate 250 g/ha): 7
Plant response rating, Corn ([5]; Rate 62 g/ha, Postemergence): 2
Corn plant response rating ([5]; Rate 62 g/ha): 0
Plant response rating, Corn ([5]; Rate 125 g/ha, Postemergence): 2
Corn plant response rating ([5]; Rate 125 g/ha): 0
Plant response rating, Corn ([5]; Rate 250 g/ha, Postemergence): 2
Plant response rating, Corn [5, 21]: 1
Plant response rating, Crabgrass ([6]; Rate 62 g/ha, Postemergence): 4
Crabgrass plant response rating ([6]; Rate 62 g/ha): 1
Plant response rating, Crabgrass ([6]; Rate 125 g/ha, Postemergence): 8
Crabgrass plant response rating ([6]; Rate 125 g/ha): 4
Plant response rating, Crabgrass ([6]; Rate 250 g/ha, Postemergence): 9
Plant response rating, Crabgrass [6, 21]: 10
Plant response rating, Giant foxtail ([7]; Rate 62 g/ha, Postemergence): 2
Giant foxtail plant response rating ([7]; Rate 62 g/ha, Preemergence): 2
Giant foxtail plant response rating ([7]; Rate 125 g/ha, Postemergence): 3
Giant foxtail plant response rating ([7]; Rate 125 g/ha, Preemergence): 5
Plant response rating, Giant foxtail ([7]; Rate 250 g/ha, Postemergence): 3
Plant response rating, Giant foxtail [7, 21]: 10
Plant response rating, Morningglory ([8]; Rate 62 g/ha, Postemergence): 3
Morningglory plant response rating ([8]; Rate 62 g/ha, Preemergence): 0
Morningglory plant response rating ([8]; Rate 125 g/ha, Postemergence): 3
Morningglory plant response rating ([8]; Rate 125 g/ha, Preemergence): 2
Plant response rating, Morningglory ([8]; Rate 250 g/ha, Postemergence): 4
Plant response rating, Morningglory [8, 21]: 2
Plant response rating, Redroot pigweed ([9]; Rate 62 g/ha, Postemergence): 8
Redroot pigweed plant response rating ([9]; Rate 62 g/ha, Preemergence): 1
Redroot pigweed plant response rating ([9]; Rate 125 g/ha, Postemergence): 9
Redroot pigweed plant response rating ([9]; Rate 125 g/ha, Preemergence): 2
Plant response rating, Redroot pigweed ([9]; Rate 250 g/ha, Postemergence): 9
Plant response rating, Redroot pigweed [9, 21]: 3
Plant response rating, Nutsedge ([10]; Rate 62 g/ha, Postemergence): 0
Nutsedge plant response rating ([10]; Rate 62 g/ha, Preemergence): 0
Nutsedge plant response rating ([10]; Rate 125 g/ha, Postemergence): 0
Nutsedge plant response rating ([10]; Rate 125 g/ha, Preemergence): 0
Plant response rating, Nutsedge [10, 21]: 0
Plant response rating, Rape ([11]; Rate 62 g/ha, Postemergence): 8
Rape plant response rating ([11]; Rate 62 g/ha, Preemergence): 0
Rape plant response rating ([11]; Rate 125 g/ha, Postemergence): 8
Rape plant response rating ([11]; Rate 125 g/ha, Preemergence): 0
Plant response rating, Rape ([11]; Rate 250 g/ha, Postemergence): 9
Plant response rating, Rape [11, 21]: 1
Plant response rating, Soybean ([12]; Rate 62 g/ha, Postemergence): 4
Soybean plant response rating ([12]; Rate 62 g/ha, Preemergence): 0
Soybean plant response rating ([12]; Rate 125 g/ha, Postemergence): 4
Plant response rating, Soybean ([12]; Rate 125 g/ha, Preemergence): 0
Plant response rating, Soybean ([12]; Rate 250 g/ha, Postemergence): 7
Plant response rating, Soybean [12, 21]: 0
Plant response rating, Sugarbeets ([13]; Rate 62 g/ha, Postemergence): 10
Sugarbeets plant response rating ([13]; Rate 62 g/ha, Preemergence): 0
Sugarbeets plant response rating ([13]; Rate 125 g/ha, Postemergence): 10
Plant response rating, Sugarbeets ([13]; Rate 125 g/ha, Preemergence): 0
Plant response rating, Sugarbeets ([13]; Rate 250 g/ha, Postemergence): 10
Plant response rating, Sugarbeets [13, 21]: 3
Plant response rating, Velvetleaf ([14]; Rate 62 g/ha, Postemergence): 2
Velvetleaf plant response rating ([14]; Rate 62 g/ha, Preemergence): 0
Velvetleaf plant response rating ([14]; Rate 125 g/ha, Postemergence): 2
Plant response rating, Velvetleaf ([14]; Rate 125 g/ha, Preemergence): 0
Plant response rating, Velvetleaf ([14]; Rate 250 g/ha, Postemergence): 4
Plant response rating, Velvetleaf [14, 21]: 0
Wheat plant response rating ([15]; Rate 62 g/ha, Postemergence): 1
Wheat plant response rating ([15]; Rate 62 g/ha, Preemergence): 0
Wheat plant response rating ([15]; Rate 125 g/ha, Postemergence): 3
Plant response rating, Wheat ([15]; Rate 125 g/ha, Preemergence): 0
Plant response rating, Wheat ([15]; Rate 250 g/ha, Postemergence): 4
Plant response rating, Wheat [15, 21]: 0
Wild oats plant response rating ([16]; Rate 62 g/ha, Postemergence): 2
Wild oats plant response rating ([16]; Rate 62 g/ha, Preemergence): 0
Wild oats plant response rating ([16]; Rate 125 g/ha, Postemergence): 3
Plant response rating, Wild oats ([16]; Rate 125 g/ha, Preemergence): 1
Plant response rating, Wild oats ([16]; Rate 250 g/ha, Postemergence): 4
Plant response rating, Wild oats [16, 21]: 2
Plant response rating, Barnyardgrass [17, 22]: 2
Plant response rating, Barnyardgrass [17, 23]: 3
Plant response rating, Barnyardgrass [17, 24]: 5
Plant response rating, Ducksalad [18, 22]: 1
Plant response rating, Ducksalad [18, 23]: 2
Plant response rating, Ducksalad [18, 24]: 6
Plant response rating, Rice [19, 22]: 1
Rice plant response rating [19, 25]: 2
Plant response rating, Rice [19, 24]: 3
Plant response rating, S. Flatsedge [20, 22]: 4
S. Flatsedge plant response rating [20, 25]: 7
Plant response rating, S. Flatsedge [20, 24]: 8
